Test results from patent US20160120853A1, “TACROLIMUS AND ANALOGUES THEREOF FOR MEDICAL USE” (CHRONOS THERAPEUTICS LIMITED, priority 2013, published 2016).
Entries after “also recorded” stand apart in the source; their conditions may differ.

Key:
worms = assay: worm lifespan, strain not stated (close structural analogues, dosing frequency); format: in vivo; set-up: Healthspan / Median Lifespan / Max Lifespan: unit not given here; settings: for ability to extend the lifespan of worms compared with tacrolimus: lifespan plots FIG. 7 / FIG. 8
Excerpt: (§1) Worm cultures of at least 80 worms were manually assessed daily for the duration of the lifespan.

[1] = post mortem MRI scanning of aged rats, fat:lean ratio; format: in vivo, rat; settings: for sub-cutaneous fat / visceral fat / fat within the body cavity: 24 month old rats, MRI, versus control treated
Excerpt: FIG. 11 presents MIR data comparing 3 month old untreated animal, 24 month old control treated animal and 24 month old tacrolimus treated animal. […] This is consistent with a cosmetic improvement (with respect to reduction in sub-cutaneous fat) and a health improvement (with respect to reduction of fat near internal organs) produced by tacrolimus treatment. The MIR images are marked (areas 1) to show internal fat areas. The sub-cutaneous fat layer is the light grey outer ring only easily seen in the 24 month old untreated control.

Bus8 worms = assay: worm lifespan (Healthspan, Median lifespan) in Bus8 background; format: in vivo; set-up: Healthspan: unit not given here; settings: for Healthspan: Control 6.87; for Median Lifespan: Control 10.10
Excerpt: as §1

[2] = blood levels of tacrolimus after one 0.3 mg oral capsule in healthy human volunteers; format: in vivo
Experimental: A hard gelatine capsule was filled with the following composition:
(§2) One oral capsule as above containing 0.3 mg tacrolimus was administered to groups of healthy human volunteers. […] The average trough level of tacrolimus (level after 24 hours of administration of each dose) observed was approximately 220 pg/mL.

[3] = blood / plasma metabolic biomarkers of aged rats after 6 m treatment; format: in vivo, rat
Excerpt: A range of techniques has been used to determine the effect RDC5 has on levels of blood biomarkers of obesity and metabolic disorders.
Metabolic biomarkers tested included: • Ketone Bodies—kinetic enzymatic • Free Fatty acids—ACS-ACOD Enzymatic • Glycerol—Calometric • Triglycerides—GPO-POD • HDL Cholesterol—CHO-PAP • LDL Cholesterol—Enzymatic • Total Cholesterol—CHO-PAP
The RDC5 treated and control treated animals had their blood plasma profiled at the end of the investigations.

C. elegans = assay: lipid accumulation in worms, Oil-Red-O staining; format: in vivo; settings: for age dependent increase in fat (lipid) accumulation: Oil-Red-O, versus DMSO control
Excerpt: Tacrolimus is able to delay the age dependent increase in fat accumulation in C. elegans. Worms are a versatile model of obesity ref: (Zheng & Greenway, 2012)
Oil-Red-O is a fat-soluble dye used for staining lipids and is quantified by colour light microscopy.

Osteoblast cells = assay: response to oxidative stress of Osteoblast cells; format: cell-based
S. Cerevisiae = assay: yeast bioscreen, Chronological Lifespan Profile of ageing yeast cultures; format: cell-based
Excerpt: The yeast bioscreen measures the Chronological Lifespan Profile of an ageing yeast cultures. The median lifespan is defined as the time at which 50% of a given population has died. Relative viability (expressed in the below chart) compares the effect of treatment on a cultures viability as a fraction of control vehicle treated cultures.
RDC5 is thus believed to be able to delay ageing and the onset of age-related diseases such as unwanted fat accumulation.

Bus5 worms = assay: worm lifespan (Healthspan, Median lifespan) in Bus5 worms; format: in vivo; settings: for Healthspan: Control 10.93; for Median Lifespan: Control 15.08
Excerpt: as §1

TNF-α = assay: blood TNF-α levels in healthy human volunteers after 0.3 mg capsule; format: in vivo; settings: 0.3 mg oral capsule
Experimental: as §2

[4] = aged rat study: weekly body weight and survival; format: in vivo
Excerpt: Aged rats are known to increase in body weight dramatically in late adulthood. Aged rats were being used as a model in RAT_ND_01 and body weights and tissue samples were taken from the rats in this trial. Rats were 18 m of age at the start of the 6 m trial. The dosage is seen in FIG. 4.
Throughout this study (i.e. from 18 months of age onwards), individual weekly body weight assessments were made for both the control and RDC5 treated group. […] At the 1 and 2 week time-points, before the onset of treatment, no significant difference between RDC5 and control treatment could be observed. Control treated rat body weight continued to increase over time from approximately 250 g to over 320 g at the 6 month time-point (at 24 months of age). […] Weight levels dropped initially however not below a healthy age (approx. 230 g) and remained constant (+/−20 g) for the remainder of the study.
Fifty female Fischer rats initially aged 18 months were used in this study. Animals were housed at standard temperature (22±1° C.) in light controlled environment (lights on from 7 am to 8 pm) with ad libitum access to food and water with softer food introduced at 17 weeks to encourage food intake. Half the animals were treated with vehicle (5 ml/kg, s.c.) 6 days a week and half were treated with RDC5 (1 mg/kg, s.c.) 6 days a week. Individual body weights were recorded at baseline and then once a week until the end of the study.

[5] = FIG. 8 experiment, Control 10.4
[6] = 6 m treatment in rats, versus control
[7] = blood plasma at end of study, versus control treated

For `CC[C@@H]1/C=C(\C)C[C@H](C)C[C@H](OC)[C@H]2O[C@@](O)(C(=O)C(=O)N3CCCC[C@H]3C(=O)O[C@H](/C(C)=C/[C@@H]3CC[C@@H](O)[C@H](OC)C3)[C@H](C)[C@@H](O)CC1=O)[C@H](C)C[C@@H]2OC` [Ascomycin], the Healthspan (worms; FIG. 7 experiment, Control 3.0) was 4.1, the “Median Lifespan” value (worms; FIG. 7 experiment, Control 5.7) was 7.2 and the “Max Lifespan” value (worms; FIG. 7 experiment, Control 8.7) was 10.6. The “ability to extend the lifespan of worms compared with tacrolimus” value (worms) was “as effectively as tacrolimus”.
With `CCC[C@@H]1/C=C(\C)C[C@H](C)C[C@H](OC)C2O[C@@](O)(C(=O)C(=O)N3CCCC[C@H]3C(=O)O[C@H](/C(C)=C/[C@@H]3CC[C@@H](O)[C@H](OC)C3)[C@H](C)[C@@H](O)CC1=O)[C@H](C)C[C@@H]2OC` [Dihydrotacrolimus] the Healthspan (worms; FIG. 8 experiment, Control 5.9) was 7.3, the “Median Lifespan” value (worms; FIG. 8 experiment, Control 8.1) was 10.3 and the Max Lifespan (worms; [5]) was 13.2. For the same compound, the “ability to extend the lifespan of worms compared with tacrolimus” value (worms) was “almost as effectively as tacrolimus”.
In the case of `C=CC[C@@H]1/C=C(\C)C[C@H](C)C[C@H](OC)[C@H]2O[C@@](O)(C(=O)C(=O)N3CCCC[C@H]3C(=O)O[C@H](/C(C)=C/[C@@H]3CC[C@@H](O)[C@H](OC)C3)[C@H](C)[C@@H](O)CC1=O)[C@H](C)C[C@@H]2OC` [RDC5, tacrolimus], the sub-cutaneous fat [1] is reported as “less”, the “visceral fat / fat within the body cavity” value [1] is reported as “less” and the sub-cutaneous fat ([1]; listed as tacrolimus) is reported as “akin to the 3 month old untreated animal”. For the same compound, the “visceral fat / fat within the body cavity” value ([1]; listed as tacrolimus) was “much less”, the average body fat ([1]; rats at 24 months, control roughly 40%, 3 month rats roughly 20%) was “roughly 30%” and the “Healthspan % increase wrt control” value (Bus8 worms; Bus8, 1 ug/ml) was 0.5%. For the same compound, the “Median Lifespan % increase wrt control” value (Bus8 worms; Bus8, 1 ug/ml) was 7.5%, the Healthspan (Bus8 worms; Bus8, 1 ug/ml) was 6.90 and the “Median Lifespan” value (Bus8 worms; Bus8, 1 ug/ml) was 10.86. For the same compound, the “Healthspan % increase wrt control” value (Bus8 worms; Bus8, 10 ug/ml) was 14%, the “Median Lifespan % increase wrt control” value (Bus8 worms; Bus8, 10 ug/ml) was 20% and the Healthspan (Bus8 worms; Bus8, 10 ug/ml) was 7.85. For the same compound, the “Median Lifespan” value (Bus8 worms; Bus8, 10 ug/ml) was 12.18, the “Healthspan % increase wrt control” value (Bus8 worms; Bus8, 20 ug/ml) was −9% and the “Median Lifespan % increase wrt control” value (Bus8 worms; Bus8, 20 ug/ml) was 16%. For the same compound, the Healthspan (Bus8 worms; Bus8, 20 ug/ml) was 6.23, the “Median Lifespan” value (Bus8 worms; Bus8, 20 ug/ml) was 11.70 and the “Healthspan % increase wrt control” value (Bus8 worms; Bus8, 40 ug/ml) was −3%. For the same compound, the “Median Lifespan % increase wrt control” value (Bus8 worms; Bus8, 40 ug/ml) was 16%, the Healthspan (Bus8 worms; Bus8, 40 ug/ml) was 6.67 and the “Median Lifespan” value (Bus8 worms; Bus8, 40 ug/ml) was 11.70. The “dose at which efficacy peaks for Median Lifespan extension” value (Bus8 worms; Bus8 worms) was 10 µg/mL, the “most efficacious dose at extending Healthspan” value (Bus8 worms; Bus8 worms, doses tested 1, 10, 20, 40 ug/ml) was 10 µg/mL and the “Healthspan and Median lifespan of populations of worms” value (Bus8 worms; cultures of at least 80 worms, assessed daily) was “able to extend”. The least effective dose (Bus8 worms; dose response in worms, FIG. 9) was 40 µg/mL, the “average peak level of tacrolimus” value ([2]; 0.3 mg oral capsule, healthy volunteers) was “approximately 3700 pg/mL” and the AUC(0-t) ([2]; human, blood, 0.3 mg oral capsule, healthy volunteers, read-out: average area under the curve AUC 0-t) was about 23.5 ng·h/mL. The concentration at 24 h ([2]; human, blood, 0.3 mg oral capsule, level after 24 hours of administration of each dose, healthy volunteers, read-out: average trough level of tacrolimus) was about 0.22 ng/mL, the expected trough level ([2]; two capsules, single dose of 0.6 mg) was “about 440 pg/mL” and the HDL [3, 6] was “significant reductions”. The LDL [3, 6] was “significant reductions”, the free fatty acids [3, 6] was “reduction is not statistically significant” and the glycerol [3, 6] was “reduction is not statistically significant”. For the same compound, the ketone bodies [3, 6] was “reduction is not statistically significant”, the total cholesterol [3, 6] was “significant reductions” and the triglycerides [3, 6] was “significant reductions; also recorded: beneficial reduction”. The “reduction in lactate dehydrogenase levels” value [3, 7] was 50%, the “reduction in total cholesterol” value [3, 7] was 40% and the “age dependent increase in fat (lipid) accumulation” value (C. elegans) was “shallower rise”. The “age dependent increase in fat (lipid) accumulation” value (C. elegans; listed as Tacrolimus) was “able to delay”, the “time at which maximal lipid accumulation happens” value (C. elegans; days post adulthood, DMSO control day 4) was 7 days and the “shape of dose response, response to oxidative stress” value (Osteoblast cells) was “bell shaped dose response”. The “effect on growth rate” value (S. Cerevisiae; S. Cerevisiae) was “without effecting growth rate”, the “median lifespan of yeast cultures versus control treated cultures” value (S. Cerevisiae; S. Cerevisiae chronological lifespan) was “significantly longer” and the Healthspan (worms; FIG. 7 experiment, Control 3.0, listed as RDC5 (Evita)) was 4.5. The Healthspan (worms; FIG. 7 experiment, Control 3.0, listed as RDC5 (Sigma)) was 4.6, the “Median Lifespan” value (worms; FIG. 7 experiment, Control 5.7, listed as RDC5 (Evita)) was 7.1 and the “Median Lifespan” value (worms; FIG. 7 experiment, Control 5.7, listed as RDC5 (Sigma)) was 7.8. For the same compound, the “Max Lifespan” value (worms; FIG. 7 experiment, Control 8.7, listed as RDC5 (Evita)) was 10.3, the “Max Lifespan” value (worms; FIG. 7 experiment, Control 8.7, listed as RDC5 (Sigma)) was 11.2 and the Healthspan (worms; FIG. 8 experiment, Control 5.9) was 7.8. The “Median Lifespan” value (worms; FIG. 8 experiment, Control 8.1) was 10.8, the Max Lifespan (worms; [5]) was 13.8 and the “lifespan compared to control” value (worms; dosing on one third of days, except when dosing not commenced early in lifespan) was “significant increases”. For the same compound, the “lifespan compared to control” value (worms; dosing on two thirds of days) was “significant increases”, the “shape of dose response, worm lifespan extension” value (worms; in vivo) was “bell shaped dose response” and the “Healthspan % increase wrt control” value (Bus5 worms; Bus5, 1 ug/ml) was 33%. The “Median Lifespan % increase wrt control” value (Bus5 worms; Bus5, 1 ug/ml) was 23%, the Healthspan (Bus5 worms; Bus5, 1 ug/ml) was 14.55 and the “Median Lifespan” value (Bus5 worms; Bus5, 1 ug/ml) was 18.54. The “Healthspan % increase wrt control” value (Bus5 worms; Bus5, 10 ug/ml) was 23%, the “Median Lifespan % increase wrt control” value (Bus5 worms; Bus5, 10 ug/ml) was 26% and the Healthspan (Bus5 worms; Bus5, 10 ug/ml) was 13.43. For the same compound, the “Median Lifespan” value (Bus5 worms; Bus5, 10 ug/ml) was 19.03, the “Healthspan % increase wrt control” value (Bus5 worms; Bus5, 40 ug/ml) was −6% and the “Median Lifespan % increase wrt control” value (Bus5 worms; Bus5, 40 ug/ml) was 0.5%. The Healthspan (Bus5 worms; Bus5, 40 ug/ml) was 10.28, the “Median Lifespan” value (Bus5 worms; Bus5, 40 ug/ml) was 15.17 and the “changes in blood TNF-α levels” value (TNF-α) was “No significant changes”. The “age related weight gain” value ([4]; 1 mg/kg s.c. 6 days a week) was “did not show age related weight gain”, the “survival of animals at the end of the study versus control” value ([4]; 1 mg/kg s.c. 6 days a week, 6 months) was “No significant differences” and the “lighter than control treated age-matched rats at end of study” value ([4]; 6 month study, 24 months of age) was 28%.
